Tests used:
[1] = system: ATR-driven phosphorylation of Chk1 kinase at Serine 345 in HT-29 cells; experiment: pCHK1 cellular assay (CHK1 p-Ser345 AlphaScreen SureFire); format: cell-based; conditions: Homo sapiens; HT-29 colorectal adenocarcinoma cells; 4-nitroquinoline N-oxide 12 μM; read-out: Cell IC50 (pCHK1)
Experimental: (§1) The ability of the compounds of Formula I to inhibit the catalytic activity of the ATR/ATRIP complex was measured in a Caliper-based assay, and in HT-29 cells in an Alphascreen assay, following the ATR-mediated phosphorylation of CHK1, described below.
Cellular IC50 for the inhibitors of ATR described herein were measured in HT-29 colorectal adenocarcinoma cells.
The microplate was incubated overnight (approximately 20 hours) at 37° C. with 5% CO2 and ambient O2. Stock solutions of the test compounds were prepared in 100% DMSO (Sigma, Catalog #D2650) and serially diluted 1:3 using 100% DMSO. Compounds were additionally diluted 1:33 in culture medium, and 10 μL/well were transferred to the tissue culture plate. Following the compound addition, the microplate was incubated at 37° C. for 90 minutes. […] The cells were then washed with PBS and lysed using 10 μL/well […]® Kit lysis buffer diluted to 1× in water (PerkinElmer Catalog #TGRCHK1S50K), with mixing on an orbital shaker at 500 rpm for 20 min at room temperature. Lysates were frozen at −20 OC overnight.
The pCHK1 ALPHASCREEN® signal was measured using an ENVISION® plate reader (PerkinElmer). IC50 values were calculated using a four-parameter logistic curve fit using Genedata Screener software. Percent of control for each compound concentration was calculated by the following formula: 100*(Compound−Min)/(Max−Min), where “Max” is the high control, DMSO, and “Min” is the low control, 5 μM ATR inhibitor.

ATR/ATRIP complex = ATR/ATRIP complex (Homo sapiens (Human), UniProt Q13535); experiment: ATR/ATRIP enzymatic assay (Caliper-based); format: biochemical; conditions: ATR/ATRIP enzyme; FAM-labeled RAD17 peptide, ATP
ATR/ATRIP complex, sequence (Q13535 whole entry): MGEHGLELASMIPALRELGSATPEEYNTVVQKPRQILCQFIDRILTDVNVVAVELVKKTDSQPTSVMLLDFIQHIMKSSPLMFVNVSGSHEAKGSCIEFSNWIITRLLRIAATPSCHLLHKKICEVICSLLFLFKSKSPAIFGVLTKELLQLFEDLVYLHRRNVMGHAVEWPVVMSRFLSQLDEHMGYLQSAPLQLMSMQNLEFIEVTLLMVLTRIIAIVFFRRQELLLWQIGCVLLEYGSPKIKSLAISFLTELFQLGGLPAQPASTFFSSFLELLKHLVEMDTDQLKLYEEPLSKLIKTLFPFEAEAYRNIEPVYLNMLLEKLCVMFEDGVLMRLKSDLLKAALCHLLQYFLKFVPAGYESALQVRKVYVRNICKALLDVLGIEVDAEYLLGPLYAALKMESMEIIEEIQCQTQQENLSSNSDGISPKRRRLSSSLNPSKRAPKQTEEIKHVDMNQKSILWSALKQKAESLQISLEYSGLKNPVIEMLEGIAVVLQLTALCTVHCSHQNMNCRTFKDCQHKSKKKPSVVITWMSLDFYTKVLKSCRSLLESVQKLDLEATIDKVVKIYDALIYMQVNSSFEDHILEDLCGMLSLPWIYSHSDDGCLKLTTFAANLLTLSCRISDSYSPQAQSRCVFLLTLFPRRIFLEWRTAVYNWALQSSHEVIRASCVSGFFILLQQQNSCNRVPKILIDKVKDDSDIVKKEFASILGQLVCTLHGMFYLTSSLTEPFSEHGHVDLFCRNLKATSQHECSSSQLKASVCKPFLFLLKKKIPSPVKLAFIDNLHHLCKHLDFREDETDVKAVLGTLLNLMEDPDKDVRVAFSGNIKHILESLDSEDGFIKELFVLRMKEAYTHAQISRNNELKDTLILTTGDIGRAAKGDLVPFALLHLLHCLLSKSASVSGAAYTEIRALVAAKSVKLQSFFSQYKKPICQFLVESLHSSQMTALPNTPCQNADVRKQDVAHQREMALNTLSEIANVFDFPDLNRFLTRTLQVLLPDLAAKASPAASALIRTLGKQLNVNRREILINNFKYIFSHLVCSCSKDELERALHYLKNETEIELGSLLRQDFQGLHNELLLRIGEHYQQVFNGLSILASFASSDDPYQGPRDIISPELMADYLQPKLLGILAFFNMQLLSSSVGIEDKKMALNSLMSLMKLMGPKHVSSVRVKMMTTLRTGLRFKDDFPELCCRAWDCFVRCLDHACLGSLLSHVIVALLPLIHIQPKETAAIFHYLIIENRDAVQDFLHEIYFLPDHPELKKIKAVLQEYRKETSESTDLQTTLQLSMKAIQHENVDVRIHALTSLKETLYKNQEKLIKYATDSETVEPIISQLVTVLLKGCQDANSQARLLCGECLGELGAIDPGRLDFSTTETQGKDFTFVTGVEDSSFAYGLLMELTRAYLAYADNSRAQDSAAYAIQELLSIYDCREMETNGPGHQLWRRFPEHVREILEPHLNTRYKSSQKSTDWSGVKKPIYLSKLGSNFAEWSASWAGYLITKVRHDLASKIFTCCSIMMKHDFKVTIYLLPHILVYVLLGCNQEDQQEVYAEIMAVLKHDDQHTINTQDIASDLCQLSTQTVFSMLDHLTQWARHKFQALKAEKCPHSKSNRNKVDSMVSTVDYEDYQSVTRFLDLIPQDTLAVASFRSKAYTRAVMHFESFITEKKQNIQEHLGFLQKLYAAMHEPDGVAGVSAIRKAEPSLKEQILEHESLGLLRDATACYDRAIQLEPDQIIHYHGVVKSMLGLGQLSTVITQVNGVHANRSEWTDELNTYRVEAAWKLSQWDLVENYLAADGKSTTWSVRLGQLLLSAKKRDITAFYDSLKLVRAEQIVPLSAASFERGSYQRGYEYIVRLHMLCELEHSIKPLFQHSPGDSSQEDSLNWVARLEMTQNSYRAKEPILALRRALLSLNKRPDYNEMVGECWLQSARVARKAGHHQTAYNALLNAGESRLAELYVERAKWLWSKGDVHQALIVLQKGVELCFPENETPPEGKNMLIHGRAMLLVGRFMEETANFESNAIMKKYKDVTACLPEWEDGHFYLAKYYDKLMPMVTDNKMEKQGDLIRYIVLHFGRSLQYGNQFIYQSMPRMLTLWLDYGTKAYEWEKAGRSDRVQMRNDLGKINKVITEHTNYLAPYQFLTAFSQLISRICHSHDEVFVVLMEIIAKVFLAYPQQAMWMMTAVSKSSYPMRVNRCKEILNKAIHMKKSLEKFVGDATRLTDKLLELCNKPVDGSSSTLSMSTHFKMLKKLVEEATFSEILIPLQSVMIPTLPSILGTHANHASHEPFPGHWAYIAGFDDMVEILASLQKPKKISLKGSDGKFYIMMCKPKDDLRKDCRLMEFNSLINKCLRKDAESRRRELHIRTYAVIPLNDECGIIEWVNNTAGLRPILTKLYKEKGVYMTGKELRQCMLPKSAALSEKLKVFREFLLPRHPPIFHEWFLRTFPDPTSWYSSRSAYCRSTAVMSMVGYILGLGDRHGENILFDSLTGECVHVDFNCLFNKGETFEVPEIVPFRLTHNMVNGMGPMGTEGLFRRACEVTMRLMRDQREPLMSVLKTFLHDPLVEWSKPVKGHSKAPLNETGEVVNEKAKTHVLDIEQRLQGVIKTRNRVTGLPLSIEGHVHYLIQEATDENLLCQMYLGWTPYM
ATR/ATRIP complex, sequence (Q8WXE1 whole entry partner): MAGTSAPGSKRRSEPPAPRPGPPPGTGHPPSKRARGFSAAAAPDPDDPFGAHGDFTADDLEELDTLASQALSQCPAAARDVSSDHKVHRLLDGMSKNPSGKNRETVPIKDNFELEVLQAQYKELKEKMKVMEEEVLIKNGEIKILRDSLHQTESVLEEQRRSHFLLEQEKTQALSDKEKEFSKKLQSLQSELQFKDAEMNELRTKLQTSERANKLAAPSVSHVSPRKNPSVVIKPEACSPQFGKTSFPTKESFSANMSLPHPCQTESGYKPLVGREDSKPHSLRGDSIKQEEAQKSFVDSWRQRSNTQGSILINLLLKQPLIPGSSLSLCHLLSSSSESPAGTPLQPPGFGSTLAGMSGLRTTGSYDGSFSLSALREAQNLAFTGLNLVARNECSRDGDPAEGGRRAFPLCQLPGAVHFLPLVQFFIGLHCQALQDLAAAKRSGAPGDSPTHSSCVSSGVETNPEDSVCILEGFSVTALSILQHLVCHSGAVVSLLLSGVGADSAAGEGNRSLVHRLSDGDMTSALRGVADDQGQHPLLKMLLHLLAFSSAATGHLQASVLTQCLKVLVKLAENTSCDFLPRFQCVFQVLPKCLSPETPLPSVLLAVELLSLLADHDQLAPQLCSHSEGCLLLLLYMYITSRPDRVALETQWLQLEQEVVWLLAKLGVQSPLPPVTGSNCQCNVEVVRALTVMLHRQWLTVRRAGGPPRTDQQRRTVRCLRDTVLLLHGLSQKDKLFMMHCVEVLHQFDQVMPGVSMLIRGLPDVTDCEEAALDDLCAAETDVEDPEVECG
Experimental: as §1
Human full-length FLAG-TEV-ATR and His6-ATRIP were co-expressed in HEK293 cells. […] The sample was loaded into a column, and then washed with buffer A three times. Protein was subsequently eluted with 2 ml of buffer B (buffer A+200 μg/ml 3×FLAG peptide).
The ability of new chemical matter to inhibit the ATR catalytic activity in this ATR/ATRIP complex was assessed using a Caliper-based assay. A 2× enzyme solution (i.e., 4 nM enzyme) was prepared using 1× Kinase Reaction Buffer (25 mM HEPES pH 8, 0.0055% Brij-35, 10 mM MnCl2, and 1 mM DTT). […] 10 μL of the 2× enzyme solution was transferred to an assay plate containing 60 nL of test compound (from a 3× serial dilution) in 100% DMSO. Following a 30-min incubation at 28° C., 10 μL of the 2× peptide solution was then transferred to the same assay plate. The reaction incubated at 28° C. for 6 h. After adding 30 μL stop buffer (100 mM HEPES pH 7.5, 0.015% Brij-35, 0.2% Coating-3 Reagent (PerkinElmer, catalog #PN760050), and 50 mM EDTA), data were collected on a Caliper instrument. Conversion values were converted to inhibition values via the following equation: % inhibition=(max−conversion)/(max−min)*100, wherein “max” corresponds to the DMSO control, and “min” corresponds to the low control. IC50 values were calculated using the following equation in XLFit: Y=Bottom+(Top−Bottom)/1+(IC50/X)^HillSlope).

Row | Structure (SMILES) | IC50 [1] [nM] | IC50 (ATR/ATRIP complex) [nM]
1 | Cc1nc2ccccc2n1-c1cc(N2CCOC[C@H]2C)cc(N=S(C)(C)=O)n1 [Example 28, (R)-dimethyl((6-(2-methyl-1H-benzo[d]imidazol-1-yl)-4-(3-methylmorpholino)pyridin-2-yl)imino)-λ^6-sulfanone] | 10000 | 24
2 | C[C@@H]1COCCN1c1cc(N=S(C)(C)=O)nc(-c2nccn2C)c1 [Example 31, (R)-dimethyl((6-(1-methyl-1H-imidazol-2-yl)-4-(3-methylmorpholino)pyridin-2-yl)imino)-λ^6-sulfanone] | 3060 | 3470
3 | C[C@@H]1COCCN1c1cc(N=S(C)(C)=O)nc(-c2ccnn2C)c1 [Example 33, (R)-dimethyl((6-(1-methyl-1H-pyrazol-5-yl)-4-(3-methylmorpholino)pyridin-2-yl)imino)-λ^6-sulfanone] | 615 | 1850
4 | C[C@@H]1COCCN1c1cc(N=S(C)(C)=O)nc(-c2cnn(C)c2)c1 [Example 34, (R)-dimethyl((6-(1-methyl-1H-pyrazol-4-yl)-4-(3-methylmorpholino)pyridin-2-yl)imino)-λ^6-sulfanone] | 10000 | 3440
5 | Cc1nccn1-c1cc(N2CCOC[C@H]2C)cc(N=S(C)(C)=O)n1 [Example 39, (R)-dimethyl((6-(2-methyl-1H-imidazol-1-yl)-4-(3-methylmorpholino)pyridin-2-yl)imino)-λ^6-sulfanone] | 3060 | 3470

Other lines, results leading:

Row | IC50 [1] [nM] | IC50 (ATR/ATRIP complex) [nM] | Structure (SMILES)
6 | 701 | 8 | C[C@@H]1COCCN1c1cc(N=S2(=O)CCCC2)nc(-c2ccnc3[nH]ccc23)c1 [Example 26, (R)-1-((4-(3-methylmorpholino)-6-(1H-pyrrolo[2,3-b]pyridin-4-yl)pyridin-2-yl)imino)tetrahydro-1H-1-λ^6-thiophene 1-oxide]
7 | 660 | 30 | C[C@@H]1COCCN1c1cc(N=S(C)(C)=O)nc(-c2cc(Cl)nc3[nH]ccc23)c1 [Example 27, (R)-((6-(6-chloro-1H-pyrrolo[2,3-b]pyridin-4-yl)-4-(3-methylmorpholino)pyridin-2-yl)imino)dimethyl-λ^6-sulfanone]
8 | 195 | 4 | C[C@@H]1COCCN1c1cc(N=S(C)(C)=O)nc(-c2cc(F)cc3[nH]ccc23)c1 [Example 32, (R)-((6-(6-fluoro-1H-indol-4-yl)-4-(3-methylmorpholino)pyridin-2-yl)imino)dimethyl-λ^6-sulfanone]

Source: patent publication US10894052B2, “Heterocyclic inhibitors of ATR kinase” (Board of Regents, The University of Texas System, priority 2018, dated 2021)
